In the NIST ThermoML archive (doi:10.1016/j.fluid.2017.04.014):

Conditions: Liquid, Closed cell (Static) method

Cc1ccccc1 [toluene]
Conditions | vapor or sublimation pressure [kPa]
278.7 K | 1.26
283.6 K | 1.7
288.5 K | 2.26
293.4 K | 2.97
298.3 K | 3.89
303.2 K | 5
308.1 K | 6.27
313.1 K | 7.99
318 K | 9.95
323 K | 12.26
327.9 K | 15
332.8 K | 18.26
337.8 K | 22.04

COC(C)(C)C [2-methoxy-2-methylpropane]
Conditions | vapor or sublimation pressure [kPa]
283.6 K | 17.79
288.6 K | 22.07
293.5 K | 27.43
298.4 K | 33.72
303.3 K | 41.1
308.2 K | 49.8
313.1 K | 59.9
318.1 K | 71.61
323 K | 85.01
327.9 K | 100.34
332.9 K | 117.7
337.8 K | 137.39

CCO [ethanol]
Conditions | vapor or sublimation pressure [kPa]
278.6 K | 2.18
283.5 K | 3.11
293.4 K | 5.95
298.3 K | 7.96
303.2 K | 10.52
308.1 K | 13.84
313.1 K | 17.87
318.1 K | 22.98
322.9 K | 29.05
327.9 K | 36.73
332.8 K | 46.15

CC(C)CC(C)(C)C [2,2,4-trimethylpentane]
Conditions | vapor or sublimation pressure [kPa]
283.6 K | 3.05
288.4 K | 3.99
293.4 K | 5.18
298.3 K | 6.63
298.4 K | 6.62
303.3 K | 8.39
308.2 K | 10.53
313.1 K | 12.97
318.1 K | 15.96
323 K | 19.54
328 K | 23.81
332.8 K | 28.66
